Results published in patent US9624200B2, “Therapeutic piperazines” (DART NEUROSCIENCE (CAYMAN) LTD., priority 2006, dated 2017).

Each compound was assayed on contextual memory (freezing) in C57BL/6 male mice (assay: Contextual Memory Assay: Fear Conditioning). Conditions: 0.1 mg/kg injected 20 minutes before training.
Format: in vivo, mouse
Source text: Contextual memory is a form of Pavlovian fear conditioning in which a naive mouse is placed into a novel chamber (context) containing distinct visual, olfactory and tactile cues. After several minutes of acclimation, the mouse receives a brief, mild electric shock to its feet. From this negative experience, the mouse will remember for months that that chamber is dangerous. When placed back into the same context at some later time after training, the mouse's natural response to danger is to “freeze,” sitting stone still for many seconds. This is similar to what happens to humans when they experience fear. The percent of time during an observation period that the mouse spends frozen represents a quantitative measure (memory score) of its memory of the context.
Young-adult (10-12 weeks old) C57BL/6 male mice and Sprague Dawley male rats of 250-300 g (Taconic, N.Y.) were used. Mice were group-housed (5 mice) in standard laboratory cages while rats were housed in pairs and maintained on a 12:12 light-dark cycle. The experiments were always conducted during the light phase of the cycle. With the exception of testing times, the mice had ad lib access to food and water. […]
To assess contextual memory, a modified contextual fear conditioning task originally developed for evaluation of memory in CREB knock-out mice was used (Bourtchouladze, et. aL, Cell, 1994, 79, 59-68). […] 24 hours after training, the mouse was placed into the same training chamber and contextual memory was assessed by scoring freezing behavior (‘freezing’ serves as memory score). […]
All experiments were designed and performed in a balanced fashion, meaning that (i) for each experimental condition (e.g. a specific dose-effect) an equal number of experimental and control mice was used; (ii) each experimental condition was replicated 2-3 independent times, and replicate days were added to generate final number of subjects. […] Data were analyzed by Student's unpaired t test using a software package (Statview 5.0.1; SAS Institute, Inc). All values in the text and figures are expressed as mean+SEM. […]

SMILES	effect on contextual memory
COc1ccc(N2CCN[C@@H](CC3CCCCC3)C2)cc1OC1CCCC1 [Compound 126, (S)-3-Cyclohexylmethyl-1-(3-cyclopentyloxy-4-methoxy-phenyl)-piperazine]	no significant effect

Same assay, conditions: 1 mg/kg injected 20 minutes before training, 2 training trials, vehicle 22.3+3.2%, p<0.05

SMILES	freezing (memory score) 24 hours after training
COc1ccc(N2CCN[C@@H](CC3CCCCC3)C2)cc1OC1CCCC1 [Compound 126, (S)-3-Cyclohexylmethyl-1-(3-cyclopentyloxy-4-methoxy-phenyl)-piperazine]	32.5+3.2%

Same assay, conditions: 10 mg injected 20 minutes before training, 2 training trials, vehicle 22.3+3.2%, p<0.005

SMILES	freezing (memory score) 24 hours after training
COc1ccc(N2CCN[C@@H](CC3CCCCC3)C2)cc1OC1CCCC1 [Compound 126, (S)-3-Cyclohexylmethyl-1-(3-cyclopentyloxy-4-methoxy-phenyl)-piperazine]	38.3%

What follows are compounds tested on PDE4 from human U-937 cells (assay: PDE4 Inhibition Assay). Conditions: 1 μM cAMP, [3H]-cAMP, read-out: Potency Class (Inhibitory Concentration) in the PDE4 assay.
Format: biochemical
How it was run: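 U-937-derived PDE4 (2 μg/ml) was preincubated with compound in Tris-HCl pH 7.5 for 15 min at 25° C. It then reacted 20 min with cAMP plus [^3H]-cAMP. [^3H]-AMP was converted to [^3H]-adenosine by nucleotidase, resin-separated and counted; IC50 came from percent inhibition.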

SMILES	IC50
Cc1nc(CC(=O)N2CCN(c3ccc(OC(F)F)c(OC4CCCC4)c3)C[C@@H]2CC(C)C)n[nH]1 [Compound 374, (S)-1-(4-(3-(cyclopentyloxy)-4-(difluoromethoxy)phenyl)-2-isobutylpiperazin-1-yl)-2-(5-methyl-1H-1,2,4-triazol-3-yl)ethanone]	< 200 nM
COc1ccc(N2CCN(C(=O)Cc3n[nH]c(C)n3)[C@@H](CC(C)C)C2)cc1OC(C)C [Compound 377, (S)-1-(2-isobutyl-4-(3-isopropoxy-4-methoxyphenyl)piperazin-1-yl)-2-(5-methyl-1H-1,2,4-triazol-3-yl)ethanone]	200 to 1000 nM
COc1ccc(N2CCN(C(=O)Cc3c[nH]cn3)[C@@H](CC(C)C)C2)cc1OC(C)C [Compound 378, (S)-2-(1H-imidazol-4-yl)-1-(2-isobutyl-4-(3-isopropoxy-4-methoxyphenyl)piperazin-1-yl)ethanone]	200 to 1000 nM
CCc1nn(C(C)C)c2cc(N3CCN(C(C)=O)[C@@H](Cc4ccccc4)C3)ccc12 [Compound 379, (S)-1-(2-benzyl-4-(3-ethyl-1-isopropyl-1H-indazol-6-yl)piperazin-1-yl)ethanone]	> 1000 nM
CCc1nn(C(C)C)c2cc(N3CCN(CC(N)=O)[C@@H](Cc4ccccc4)C3)ccc12 [Compound 383, (S)-2-(2-benzyl-4-(3-ethyl-1-isopropyl-1H-indazol-6-yl)piperazin-1-yl)acetamide]	> 1000 nM
COc1ccc(N2CCN(C(=O)Cc3cccnc3)[C@@H](Cc3ccccc3)C2)cc1OC1CCCC1 [Compound 385, (S)-1-(2-benzyl-4-(3-(cyclopentyloxy)-4-methoxyphenyl)piperazin-1-yl)-2-(pyridin-3-yl)ethanone]	< 200 nM
COc1ccc(N2CCN(C(=O)Cc3ncccn3)[C@@H](Cc3ccccc3)C2)cc1OC1CCCC1 [Compound 388, (S)-1-(2-benzyl-4-(3-(cyclopentyloxy)-4-methoxyphenyl)piperazin-1-yl)-2-(pyrimidin-2-yl)ethanone]	< 200 nM

Second part, the compound after the results:

IC50	SMILES
< 200 nM	CCc1nn(C2CCCC2)c2cc(N3CCN(C(=O)Cc4nc(C)n[nH]4)[C@@H](Cc4ccccc4)C3)ccc12 [Compound 380, (S)-1-(2-benzyl-4-(1-cyclopentyl-3-ethyl-1H-indazol-6-yl)piperazin-1-yl)-2-(3-methyl-1H-1,2,4-triazol-5-yl)ethanone]
< 200 nM	CCc1nn(C(C)C)c2cc(N3CCN(C(=O)Cc4nc(C)n[nH]4)[C@@H](Cc4ccccc4)C3)ccc12 [Compound 381, (S)-1-(2-benzyl-4-(3-ethyl-1-isopropyl-1H-indazol-6-yl)piperazin-1-yl)-2-(3-methyl-1H-1,2,4-triazol-5-yl)ethanone]
> 1000 nM	CCc1nn(C(C)C)c2cc(N3CCN(C(=O)CC(N)=O)[C@@H](Cc4ccccc4)C3)ccc12 [Compound 382, (S)-3-(2-benzyl-4-(3-ethyl-1-isopropyl-1H-indazol-6-yl)piperazin-1-yl)-3-oxopropanamide]
< 200 nM	COc1ccc(N2CCN(C(=O)Cc3ccccn3)[C@@H](Cc3ccccc3)C2)cc1OC1CCCC1 [Compound 384, (S)-1-(2-benzyl-4-(3-(cyclopentyloxy)-4-methoxyphenyl)piperazin-1-yl)-2-(pyridin-2-yl)ethanone]
> 1000 nM	COc1ccc(N2CCN(C(=O)Cc3ccncc3)[C@@H](Cc3ccccc3)C2)cc1OC1CCCC1 [Compound 386, (S)-1-(2-benzyl-4-(3-(cyclopentyloxy)-4-methoxyphenyl)piperazin-1-yl)-2-(pyridin-4-yl)ethanone]
200 to 1000 nM	COc1ccc(N2CCN(C(=O)Cc3cnccn3)[C@@H](Cc3ccccc3)C2)cc1OC1CCCC1 [Compound 387, (S)-1-(2-benzyl-4-(3-(cyclopentyloxy)-4-methoxyphenyl)piperazin-1-yl)-2-(pyrazin-2-yl)ethanone]
